Results published in patent US20230140290A1, “SALICYLAMIDE DERIVATIVES AND RELATED METHODS OF MAKING” (THE BOARD OF REGENTS OF THE UNIVERSITY OF TEXAS SY, priority 2020, published 2023).

How the values were obtained:
HAdV5-GFP = assay: Plaque assay (inhibition of HAdV plaque formation); assay type: cell-based, HAdV-5; conditions: for inhibition at 10 µM: read-out: Plaque Assay (%) Inhibition (10 μM); for IC50: read-out: Plaque Assay IC50 (μM), HAdV5-GFP, low MOI, 293β5 cell line; for Selectivity index (SI): ratio of CC50 to IC50 in plaque assay
Experimental: Plaque Assay. […] When cells reached 80-90% confluency, they were infected with HAdV5-GFP (0.06 vp/cell) and rocked for 2 h at 37° C. After the incubation the inoculum was removed, and the cells were washed once with PBS.
Plaque Assay. Compounds were tested using low MOI infections (0.06 vp/cell) and at concentrations of 10 μM and in a dose-response assay ranging from 10 to 0.3 μM in a plaque assay. […] When cells reached 80-90% confluency, they were infected with HAdV5-GFP (0.06 vp/cell) and rocked for 2 h at 37° C. After the incubation the inoculum was removed, and the cells were washed once with PBS. […] The mixture also contained the compounds in concentrations ranging from 10 to 0.3 μM.

A549 cells = assay: Cytotoxicity assay (AlamarBlue); conditions: read-out: CC50 (μM), cytotoxic concentration 50%; A549 cell line, 48 h
Experimental: Cytotoxicity Assay. The cytotoxicity of the compounds was analyzed by commercial kit AlamarBlue® (Invitrogen, Ref. DAL1025). A549 cells at a density of 5×10^3 cells per well in 96-well plates were seeded. […] Cells were then incubated at 37° C. for 48 h following the kit protocol. The cytotoxic concentration 50 (CC50) value was obtained using the statistical package GraphPad Prism. This assay was performed in duplicate.

Structure (SMILES)	inhibition at 10 µM (HAdV5-GFP) [%]	IC50 (HAdV5-GFP) [µM]	CC50 (A549 cells) [µM]	Selectivity index (SI) (HAdV5-GFP)
O=C(NCc1ccc([N+](=O)[O-])cc1Cl)c1cc(Cl)ccc1O [Compound 30, 5-Chloro-N-(2-chloro-4-nitrobenzyl)-2-hydroxybenzamide]	100	1.4 ± 0.11	51.4 ± 3.7	
O=C(NCc1ccc(F)cc1Cl)c1cc(Cl)ccc1O [Compound 31, 5-Chloro-N-(2-chloro-4-fluorobenzyl)-2-hydroxybenzamide]	97.1 ± 4.1	2.56 ± 0.06	30.9 ± 10.2	12.1
O=C(NCc1ccc(Cl)cc1Cl)c1cc(Cl)ccc1O [Compound 32, 5-Chloro-N-(2,4-dichlorobenzyl)-2-hydroxybenzamide]	99.2 ± 0.4	1.73 ± 0.51	30.9 ± 13.6	
O=C(NCc1cc(F)cc(C(F)(F)F)c1)c1cc(Cl)ccc1O [Compound 35, 5-Chloro-N-(3-fluoro-5-(trifluoromethyl)benzyl)-2-hydroxybenzamide]	98.1 ± 1.4	2.4 ± 0.05	36.3 ± 7.9	15.1
O=C(NCc1ccc(C(F)(F)F)c(F)c1)c1cc(Cl)ccc1O [Compound 36, 5-Chloro-N-(3-fluoro-4-(trifluoromethyl)benzyl)-2-hydroxybenzamide]	99 ± 1.5	1.4 ± 0.02	22.3 ± 7.2	
O=C(NCc1ccc(C(F)(F)F)cc1F)c1cc(Cl)ccc1O [Compound 37, 5-Chloro-N-(2-fluoro-4-(trifluoromethyl)benzyl)-2-hydroxybenzamide]	98.8 ± 0.8	1.32 ± 0.04	45.6 ± 7.3	
O=C(NCc1ccc(Cl)cc1)c1cc(Cl)ccc1O [Compound 38, 5-Chloro-N-(4-chlorobenzyl)-2-hydroxybenzamide]	97.4 ± 3.7	3.57 ± 1.43	27.1 ± 1.1	7.6
O=C(NCc1ccc(C(F)(F)F)cc1)c1cc(Cl)ccc1O [Compound 42, 5-Chloro-2-hydroxy-N-(4-(trifluoromethyl)benzyl)benzamide]	99.6 ± 0.2	2.59 ± 0.42	23.9 ± 9.2	9.2
O=C(NCc1ccc([N+](=O)[O-])cc1)c1cc(Cl)ccc1O [Compound 43, 5-Chloro-2-hydroxy-N-(4-nitrobenzyl)benzamide]	99.5 ± 0.7	6.56 ± 0.47	175 ± 43.9	26.7
Cc1ccc(CNC(=O)c2cc(Cl)ccc2O)cc1 [Compound 44, 5-Chloro-2-hydroxy-N-(4-methylbenzyl)benzamide]	96.6 ± 4	8.12 ± 2.16	87.7 ± 4.7	10.8
C[C@@H](NC(=O)c1cc(Cl)ccc1O)c1ccccc1 [Compound 46, (R)-5-Chloro-2-hydroxy-N-(1-phenylethyl)benzamide]	100		84.6 ± 20.5	
C[C@H](NC(=O)c1cc(Cl)ccc1O)c1ccccc1 [Compound 47, (S)-5-Chloro-2-hydroxy-N-(1-phenylethyl)benzamide]	100	2.54	199	78.5
C[C@@H](NC(=O)c1cc(Cl)ccc1O)c1ccc(Cl)cc1 [Compound 48, (R)-5-Chloro-N-(1-(4-chlorophenyl)ethyl)-2-hydroxybenzamide]	100		31.1 ± 3.2	
O=C(NCCc1ccc(F)cc1)c1cc(Cl)ccc1O [Compound 52, 5-Chloro-N-(4-fluorophenethyl)-2-hydroxybenzamide]	98.7 ± 1.8	3.94	154	39.1
O=C(Cc1cc(Cl)ccc1O)Nc1cc(F)cc(C(F)(F)F)c1 [Compound 53, 2-(5-Chloro-2-hydroxyphenyl)-N-(3-fluoro-5-(trifluoromethyl)phenyl)acetamide]	91 ± 3.6	4.92	23.7 ± 1.5	4.8
O=C(CNC(=O)c1cc(Cl)ccc1O)Nc1ccc([N+](=O)[O-])cc1Cl [Compound 56, 5-Chloro-N-(2-((2-chloro-4-nitrophenyl)amino)-2-oxoethyl)-2-hydroxybenzamide]	100	2.43	129	53.2
C[C@H](NC(=O)c1cc(Cl)ccc1O)C(=O)Nc1ccc([N+](=O)[O-])cc1Cl [Compound 57, (S)-5-Chloro-N-(1-((2-chloro-4-nitrophenyl)amino)-1-oxopropan-2-yl)-2-hydroxybenzamide]	97.4 ± 2.7	3.85	100	26.0
O=C(N[C@@H](Cc1ccccc1)C(=O)Nc1ccc([N+](=O)[O-])cc1Cl)c1cc(Cl)ccc1O [Compound 59, (S)-5-chloro-N-(1-((2-chloro-4-nitrophenyl)amino)-1-oxo-3-phenylpropan-2-yl)-2-hydroxybenzamide]	100		15.2	
CC(C)(C)OC(=O)CC[C@H](NC(=O)c1cc(Cl)ccc1O)C(=O)Nc1ccc([N+](=O)[O-])cc1Cl [Compound 64, (S)-tert-Butyl 4-(5-chloro-2-hydroxybenzamido)-5-((2-chloro-4-nitrophenyl)amino)-5-oxopentanoate]	97.3 ± 0.3	0.67	22.9	34.2
CC(C)[C@H](NC(=O)c1cc(Cl)ccc1O)C(=O)Nc1cc(C(F)(F)F)cc(C(F)(F)F)c1 [Compound 65, (S)—N-(1-((3,5-Bis(trifluoromethyl)phenyl)amino)-3-methyl-1-oxobutan-2-yl)-5-chloro-2-hydroxybenzamide]	99.5 ± 0.7	0.4	30.9	77.4
CC(C)[C@H](NC(=O)c1cc(Cl)ccc1O)C(=O)Nc1cc(F)cc(C(F)(F)F)c1 [Compound 67, (S)-5-Chloro-N-(1-((3-fluoro-5-(trifluoromethyl)phenyl)amino)-3-methyl-1-oxobutan-2-yl)-2-hydroxybenzamide]	95.8 ± 5.9	0.66	43	65.2
CC(C)[C@H](NC(=O)c1cc(Cl)ccc1O)C(=O)Nc1ccc(F)c(F)c1 [Compound 68, (S)-5-Chloro-N-(1-((3,4-difluorophenyl)amino)-3-methyl-1-oxobutan-2-yl)-2-hydroxybenzamide]	98.3 ± 2.4	2.96	95 ± 18.7	32.1
O=C(N[C@@H](Cc1ccccc1)C(=O)Nc1cc(C(F)(F)F)cc(C(F)(F)F)c1)c1cc(Cl)ccc1O [Compound 69, (S)—N-(1-((3,5-Bis(trifluoromethyl)phenyl)amino)-1-oxo-3-phenylpropan-2-yl)-5-chloro-2-hydroxybenzamide]	99 ± 1.4	0.4	17.9	44.9
CS(=O)(=O)Nc1ccc(Cl)cc1C(=O)NCC(=O)Nc1ccc([N+](=O)[O-])cc1Cl [Compound 72, 5-Chloro-N-(2-((2-chloro-4-nitrophenyl)amino)-2-oxoethyl)-2-(methylsulfonamido)benzamide]	99.6 ± 5.5	9.65 ± 0.01	141 ± 13.5	14.6
CCNc1ccc(NC(=O)c2cc(Cl)ccc2O)c(Cl)c1 [Compound 79, 5-Chloro-N-(2-chloro-4-(ethylamino)phenyl)-2-hydroxybenzamide]	100	2.18	30.2 ± 4.1	13.9
CCCNc1ccc(NC(=O)c2cc(Cl)ccc2O)c(Cl)c1 [Compound 80, 5-Chloro-N-(2-chloro-4-(propylamino)phenyl)-2-hydroxybenzamide]	100	5.04	22.5 ± 10.6	4.5
CC(C)Nc1ccc(NC(=O)c2cc(Cl)ccc2O)c(Cl)c1 [Compound 81, 5-Chloro-N-(2-chloro-4-(isopropylamino)phenyl)-2-hydroxybenzamide]	100	0.88	11 ± 1.4	12.5
CC(C)CNc1ccc(NC(=O)c2cc(Cl)ccc2O)c(Cl)c1 [Compound 82, 5-Chloro-N-(2-chloro-4-(isobutylamino)phenyl)-2-hydroxybenzamide]	100	0.89	60 ± 15	67.4
CCCCCCC(C)Nc1ccc(NC(=O)c2cc(Cl)ccc2O)c(Cl)c1 (centres unmarked) [Compound 83, 5-Chloro-N-(2-chloro-4-(octan-2-ylamino)phenyl)-2-hydroxybenzamide]	100	0.32	23.5 ± 3	73.4
CCCCCCCCC(C)Nc1ccc(NC(=O)c2cc(Cl)ccc2O)c(Cl)c1 (centres unmarked) [Compound 84, 5-Chloro-N-(2-chloro-4-(decan-2-ylamino)phenyl)-2-hydroxybenzamide]	100	1.21 ± 0.02	21.9 ± 8.9	18.1
